The results in this text go back to patent US12448400B2, “KRAS G12D modulating compounds” (priority 2023, dated 2025).

Like-named read-outs stand apart in the source and are kept apart here.

Series [1] can be described thus: Mouse oral cassette pharmacokinetics. In kind it is in vivo, male CD-1 mice. How it is done: Mouse Oral Cassette Pharmacokinetics
Test compounds (1-3 compounds per cassette) were formulated in solution formulations (10 w/v % Captisol in 50 mM Citrate buffer) and administered orally at 30 mg-eq./kg each compound to a group of four male CD-1 mice. The test articles were administrated by oral gavage at a dose volume of 10 mL-eq/kg.
Blood samples were collected at 0.5, 1, 3, 6, 8, and 24 hours post dose into K2EDTA tubes and stored on wet ice until processed. Whole blood was processed to plasma by centrifugation (3500 rpm for 10 minutes at 5° C.) within 30 minutes of collection. Plasma samples were placed in Micronic 96 well tubes and stored at −80° C. until transferred. Plasma concentration of the test compounds was determined by LC-MS/MS. Pharmacokinetic parameters were estimated using non-compartment model analysis. The maximum observed concentration (Cmax) and area under the curve from time of dosing to last measured concentration (AUClast) were calculated and reported.

Another series concerns GP2D (KRAS G12D) cells. Briefly: 2D cell viability assay (CellTiter-Glo). In kind it is cell-based. The settings on record: GP2D cells, 4 days, CellTiter-Glo luminescence, read-out: G12D 2D EC50. A digest of the protocol: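 Viability was read by CellTiter-Glo after 4 days at 37 °C of 2D culture of KRAS G12D GP2D cells (1000/well, RPMI, 10% FBS) on pre-spotted threefold compound dilutions. EC50 was fitted with a sigmoidal dose-response model as the point of half-maximal luminescence loss.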

The mark [2] stands for this setting: oral gavage, 30 mg-eq./kg each compound, cassette, plasma, AUClast of parent.
[3] abbreviates: male, CD-1, mouse, in vivo, po, 30 mg/kg.

Consider “5-ethynyl-6-fluoro-4-((7R,8S,8aS,9S,12R)-4-fluoro-2-(((2R,7aS)-2-fluorotetrahydro-1H-pyrrolizin-7a(5H)-yl)methoxy)-7,8-dimethyl-14-((5-methyl-2-oxo-1,3-dioxol-4-yl)methyl)-7,8,8a,9,10,11,12,13-octahydro-1,3,6,13a,14-pentaaza-9,12-methanonaphtho[1,8-ab]heptalen-5-yl)naphthalen-2-yl isobutyrate [Example 31]”, for which the “Mouse Parent AUC” value in series [1] (setting [2]) is 0.99 µM·h. In addition, the EC50 in the series with GP2D (KRAS G12D) cells stood at 0.2 nM.
Take `C#Cc1c(F)ccc2cc(O)cc(-c3nc4c5c(nc(OC[C@@]67CCCN6C[C@H](F)C7)nc5c3F)N3C[C@H]5CC[C@H](N5)[C@@H]3[C@@H](C)C4)c12` [Comp. Ex. 64, 5-ethynyl-6-fluoro-4-((5S,5aS,6S,9R)-1-fluoro-12-(((2R,7aS)-2-fluorotetrahydro-1H-pyrrolizin-7a(5H)-yl)methoxy)-5-methyl-4,5,5a,6,7,8,9,10-octahydro-3,10a,11,13,14-pentaaza-6,9-methanonaphtho[1,8-ab]heptalen-2-yl)naphthalen-2-ol, reference compound]: the “Mouse Parent AUC” value in series [1] (setting [3]) was found to be 0.83 µM·h.
Consider `C#Cc1c(F)ccc2cc(O)cc(-c3nc4c5c(nc(OC[C@@]67CCCN6C[C@H](F)C7)nc5c3F)N3C[C@H]5CC[C@H](N5)[C@@H]3[C@@H](C)[C@H]4C)c12` [Comp. Ex. 87, reference compound], for which, in series [1] (setting [3]), the “Mouse Parent AUC” value stood at 0.9 µM·h.
With `C#Cc1c(F)ccc2cc(O)cc(-c3c(F)c4c5c(nc(OCC67CCCN6CC(F)C7)nc5c3F)N3CC5CCC(C3CCC4)N5Cc3oc(=O)oc3C)c12` [Example 28, 4-(((1S,4R,11R,15aR)-11-(8-ethynyl-7-fluoro-3-hydroxynaphthalen-1-yl)-10,12-difluoro-8-(((2R,7aS)-2-fluorotetrahydro-1H-pyrrolizin-7a(5H)-yl)methoxy)-2,3,4,5,13,14,15,15a-octahydro-1H-1,4-epiminoazepino[1′,2′:1,8]azocino[2,3,4-de]quinazolin-16-yl)methyl)-5-methyl-1,3-dioxol-2-one], in series [1] (setting [2]), the “Mouse Parent AUC” value turned out to be 0.7 µM·h. Further, in the series with GP2D (KRAS G12D) cells, the EC50 turned out to be 0.18 nM.
Take `C#Cc1c(F)ccc2cc(O)cc(-c3nc4c5c(nc(OC[C@@]67CCCN6C[C@H](F)C7)nc5c3F)N3C[C@H]5CC[C@@H]([C@@H]3[C@@H](C)[C@H]4C)N5Cc3oc(=O)oc3C)c12` [Example 29, 4-(((7R,8S,8aS,9S,12R)-5-(8-ethynyl-7-fluoro-3-hydroxynaphthalen-1-yl)-4-fluoro-2-(((2R,7aS)-2-fluorotetrahydro-1H-pyrrolizin-7a(5H)-yl)methoxy)-7,8-dimethyl-7,8,8a,9,10,11,12,13-octahydro-1,3,6,13a,14-pentaaza-9,12-methanonaphtho[1,8-ab]heptalen-14-yl)methyl)-5-methyl-1,3-dioxol-2-one]: in series [1] (setting [3]), the “Mouse Parent AUC” value came to 0.75 µM·h. Further, the EC50 in the series with GP2D (KRAS G12D) cells (96 h) is 0.13 nM.
In the same order, the values of `C#Cc1c(F)ccc2cc(OC(=O)C(C)C)cc(-c3nc4c5c(nc(OC[C@@]67CCCN6C[C@H](F)C7)nc5c3F)N3C[C@H]5CC[C@@H]([C@H]3CCC4)N5Cc3oc(=O)oc3C)c12` [Example 30, 5-ethynyl-6-fluoro-4-((6aR,7S,10R)-1-fluoro-13-(((2R,7aS)-2-fluorotetrahydro-1H-pyrrolizin-7a(5H)-yl)methoxy)-15-((5-methyl-2-oxo-1,3-dioxol-4-yl)methyl)-5,6,6a,7,8,9,10,11-octahydro-4H-3,11a,12,14,15-pentaaza-7,10-methanocyclohepta[4,5]cycloocta[1,2,3-de]naphthalen-2-yl)naphthalen-2-yl isobutyrate] are 0.66 µM·h and 0.22 nM.
